Experimental data from patent publication US12728156B2, “Tumor cell-derived exosomes and method of treating colorectal cancer” (REGENTS OF THE UNIVERSITY OF MINNESOTA, priority 2020, dated 2026).

Experiments:
[1] = test system: T cells; test: T cell depletion in naïve mice; assay type: in vivo
Protocol: FIGS. 23A-23D show the T cell depleting effects of 5-FU and anti-CD3 treatment. Related to FIGS. 14 and 16-18.
We tested the effects of 5-FU treatment and 5-FU and anti-4-1BB combination treatment on T cell depletion in vivo. Intraperitoneal administration of anti-CD3 treatment (clone: 17A2, BioXcell, 5 mg/kg every 3 days) was given to induce T cell depletion in mice. One dose of 5-FU (150 mg/kg) or 5-FU (150 mg/kg) and anti-4-1BB (5 mg/kg) combination treatment was given intraperitoneally in naïve mice. Mice were sampled on days 2, 4, 7, and 9 after treatment for quantifying T cells in lymph nodes, spleen, bone marrow, and blood circulation.

[2] = test system: CT26 and MC38 tumors; test: Established tumor model, 5-FU and anti-4-1BB schedules; conditions: monotherapy
[3] = test system: CT26 tumors; test: Mass cytometry immune profiling of treated CT26 tumors; assay type: in vivo, mice
Excerpt: FIGS. 18A-18I show the tumor immunological response to 5-FU and anti-4-1BB treatments in CT26 tumors. […] PD-L1, Ki-67, CD80, and CD86 expression were quantified in whole tumor tissue. […] See also FIGS. 25-27.
FIGS. 27A-27H show the tumor immunological response to 5-FU and anti-PD-1 treatments in CT26 tumors. Related to FIG. 18.
Tumor samples were collected and digested using standard flow cytometry procedure. A total of 3 million single cells were used for each mass cytometry staining. In brief, the single cell pellets were first incubated with Cell-ID Cisplatin with a final concentration of 5 μM for 5 min at RT to identify dead cells. Cells were then washed and blocked by Fc-receptor blocking solution. Cell membrane staining was then performed with metal-conjugated antibodies for 30 min at RT. After staining, cells were fixed and permeabilized. The intracellular staining antibodies were then added and incubated for 45 min at RT. Finally, cells were labeled with 1 ml 1,000× diluted 125 μM Cell-ID intercalator-Ir to stain all cells in MaxPar Fix and Perm Buffer overnight at 4° C. EQ Four Element Calibration Beads with the reference EQ passport P13H2302 were added to each staining tube right before data acquisition by a CyTOF 2 mass cytometer. The mass cytometry data were then normalized and exported for gating on alive single cells, which were then imported to the Cytobank software. A t-SNE analysis was performed with default parameters (perplexity, 30; iterations, 1,000) on all cell types in tumor samples.

[4] = 5-FU toxicity evaluation (body weight, diarrhea score); assay type: in vivo, mice; conditions: monotherapy
Protocol: FIGS. 24A-24D show the side effects of different treatments. Related to FIG. 16. FIGS. 24A-24B show mouse body weight, which was measured on day 12, 24, and 32 during treatment. […] FIGS. 24C-24D show the results of a diarrhea assessment, which was performed at the endpoint of mice follow-up to evaluate the side effects on mouse intestine.
Toxicity is a primary concern for cancer treatments, especially in combination therapy. We took this into account by evaluating the side effects of each treatment.
We recorded animal body weight and diarrhea scores after treatments. Mice were weighed on day 12, 24, and 32 after treatment. The diarrhea score was assessed at the endpoint of each treatment by using a 4-point scoring system: 0=normal stool; 1=slight diarrhea (soft formed stool without perianal staining of the coat); 2=moderate diarrhea (unformed stool with moderate perianal staining of the coat); and 3=severe diarrhea (watery stool with severe perianal staining of the coat) (Song et al., 2013).

[5] = test system: IL-2 production; test: Jurkat-Raji conjugation system co-cultured with human CRC derived organoids; assay type: cell-based; conditions: EVs secretion blocked in the co-culture system
Protocol: miR-424 levels were analyzed across different samples, including tumor cells, immune cells, and EVs (FIG. 3A). To determine whether EVs can be up-taken by T-cells and DCs, CT26-WT cell line-derived EVs were stained with Dio dye and incubated with mouse naïve T-cells and DCs. Images taken using confocal microscopy confirmed the presence of Dio labeled EVs inside the T-cells and DCs (FIG. 3B). Next, CT26 tumor cells were co-cultured with naïve T-cells and DCs, which lead to a significant increase in miR-424 levels in both T-cells and DCs (FIG. 3C). Importantly, this increase in miR-424 could be neutralized by blocking the production of EVs in the co-culture system using GW4869 (FIG. 3C). To determine whether this tumor-derived EVs were being engulfed by the immune cells, CD63-GFP transfected CT26 tumor cells were injected into mice to establish a subcutaneous tumor model. […] To this end, T-cells and DCs were isolated from the spleens of healthy mice, and of mice with wild-type tumors or miR-424 knockout (KO) tumors using flow cytometry sorting. miR-424 level was measured in the sorted T-cells and DCs by qPCR. […]
The Jurkat-Raji cells conjugation system was used for understanding the impacts of human tumor organoid-derived EVs on co-stimulation as well. […] Concentration of IL-2 was quantified in the co-culture system.

[6] = test system: miR-424 levels in T-cells and DCs; test: CT26 tumor cells co-cultured with naïve T-cells and DCs, miR-424 level; assay type: cell-based, mouse; conditions: co-culture with CT26 tumor cells; EV production blocked
Protocol: miR-424 levels were analyzed across different samples, including tumor cells, immune cells, and EVs (FIG. 3A). To determine whether EVs can be up-taken by T-cells and DCs, CT26-WT cell line-derived EVs were stained with Dio dye and incubated with mouse naïve T-cells and DCs. Images taken using confocal microscopy confirmed the presence of Dio labeled EVs inside the T-cells and DCs (FIG. 3B). Next, CT26 tumor cells were co-cultured with naïve T-cells and DCs, which lead to a significant increase in miR-424 levels in both T-cells and DCs (FIG. 3C). Importantly, this increase in miR-424 could be neutralized by blocking the production of EVs in the co-culture system using GW4869 (FIG. 3C). To determine whether this tumor-derived EVs were being engulfed by the immune cells, CD63-GFP transfected CT26 tumor cells were injected into mice to establish a subcutaneous tumor model. […] Next, we sought to determine whether these effects could be eliminated by knocking out miR-424 in tumors. To this end, T-cells and DCs were isolated from the spleens of healthy mice, and of mice with wild-type tumors or miR-424 knockout (KO) tumors using flow cytometry sorting. miR-424 level was measured in the sorted T-cells and DCs by qPCR. […] Next, to study the impact of EV miR-424 expression on T-cell co-stimulation, the Jurkat cell and Raji cell conjugation assays were used. […]

| Structure (SMILES) | T cell depletion [1] | time to recovery of the T cell population ([1]; after 5-FU treatment) | tumor growth and survival time [2] | frequency of MDSCs ([3]; 5-FU monotherapy and combination treatment) | CD80 expression and MDSCs in tumor tissue ([3]; 5-FU treatment) | T-cell population in the tumor microenvironment ([3]; 5-FU treatment) | side effects [4] | suppression of IL-2 production by organoids [5] | increase in miR-424 levels in T-cells and DCs [6] |
| --- | --- | --- | --- | --- | --- | --- | --- | --- | --- |
| O=c1[nH]cc(F)c(=O)[nH]1 [5-FU, 5-fluorouracil] | depleted T cells in lymphatic organs, blood circulation, and bone marrow | around 9 days | delayed tumor development | decreased | upregulated CD80 expression and depleted MDSCs | suppressed the T-cell population | severe body weight loss and diarrhea |  |  |
| O=C(/C=C/c1ccc(/C=C/C(=O)Nc2ccc(C3=NCCN3)cc2)cc1)Nc1ccc(C2=NCCN2)cc1 [GW4869] |  |  |  |  |  |  |  | neutralized | neutralized |
